Measured values reported in ChEMBL document CHEMBL4651402, “Screening of ~5500 FDA-approved drugs and clinical candidates for anti-SARS-CoV-2 activity” (2021).

Tested on: SARS-CoV-2
Experiment: microbe, parasite or virus in culture
Settings: Severe acute respiratory syndrome coronavirus 2, Vero C1008, 48 h

Question: What does the source list for `O=C(O)C[C@@H]1CCc2c1[nH]c1ccc(OCc3ccc(C4CCCC4)c(C(F)(F)F)c3)cc21`?
Answer: IC50: > 20 µM; IC50 (read-out: pIC50 (converted)): > 20 µM

Question: How did the IC50 turn out when `CCCCCCC1C(=O)O[C@H](C)[C@H](NC(=O)c2cccc(NC=O)c2O)C(=O)O[C@@H](C)[C@@H]1OC(=O)CC(C)C` (stereo partly specified) was run?
Answer: > 20 µM

Question: What about the IC50 (read-out: pIC50 (converted)) of the same molecule?
Answer: > 20 µM

Question: With `CN1C[C@H](CO)C=C2c3cccc4[nH]cc(c34)C[C@H]21` as the molecule, how does the IC50 read?
Answer: > 20 µM

Question: And the IC50 (read-out: pIC50 (converted))?
Answer: > 20 µM

Question: Which results are given for `O=C1c2cccnc2OC[C@@H]2CCCN12`?
Answer: IC50: > 20 µM; IC50 (read-out: pIC50 (converted)): > 20 µM

Question: Which IC50 does the source give for `CCOC(=O)c1ccccc1OC(=O)CCCCCCCC(=O)Oc1ccccc1C(=O)OCC` here?
Answer: > 20 µM

Question: What about the IC50 (read-out: pIC50 (converted)) of the same molecule?
Answer: > 20 µM

Question: With `CCN(CC)CCCCC(NC(=O)c1ccc([N+](=O)[O-])cc1)c1ccccc1` (stereo unspecified) as the molecule, how does the IC50 read?
Answer: > 20 µM

Question: What about the IC50 (read-out: pIC50 (converted)) of the same molecule?
Answer: > 20 µM

Question: For `CN1CC[C@@]2(C)c3cc(O)ccc3N(C)[C@H]12`, which IC50 is on record?
Answer: > 20 µM

Question: And the IC50 (read-out: pIC50 (converted))?
Answer: > 20 µM

Question: With `CC(=O)Oc1cccc(C)c1` as the molecule, how does the IC50 read?
Answer: > 20 µM

Question: What about the IC50 (read-out: pIC50 (converted)) of the same molecule?
Answer: > 20 µM

Question: For `CC(C)(O/N=C(/C(=O)NC1C(=O)N2C(C(=O)O)=C(C[n+]3ccccc3)CSC12)c1csc(N)n1)C(=O)O` (stereo unspecified), which IC50 is on record?
Answer: > 20 µM

Question: What about the IC50 (read-out: pIC50 (converted)) of the same molecule?
Answer: > 20 µM

Question: Which results are given for `CO[C@H]1C[C@@H]2CC[C@@H](C)[C@@](O)(O2)C(=O)C(=O)N2CCCC[C@H]2C(=O)O[C@H]([C@H](C)C[C@@H]2CC[C@@H](OP(C)(C)=O)[C@H](OC)C2)CC(=O)[C@H](C)/C=C(/C)[C@@H](O)[C@@H](OC)C(=O)[C@H](C)C[C@H](C)\C=C/C=C\C=C/1C`?
Answer: IC50: > 20 µM; IC50 (read-out: pIC50 (converted)): > 20 µM

Question: Which IC50 does the source give for `C=C1[C@H](n2ccc(N)nc2=O)O[C@H](CO)[C@H]1O` here?
Answer: > 20 µM

Question: What about the IC50 (read-out: pIC50 (converted)) of the same molecule?
Answer: > 20 µM

Question: Which results are given for `C[C@@H]1CCC2[C@](C)(CO)[C@@H](O)CC[C@]2(C)[C@]12CCC(CO)(CCO)O2` (stereo partly specified)?
Answer: IC50: > 20 µM; IC50 (read-out: pIC50 (converted)): > 20 µM

Question: How did the IC50 turn out when `CC[C@H](C)C[C@H](C)CCCCCCCCC(=O)N[C@H]1C[C@@H](O)[C@H](NCCN)NC(=O)[C@@H]2[C@@H](O)CCN2C(=O)[C@H]([C@H](O)CCN)NC(=O)C([C@H](O)[C@@H](O)c2ccc(O)cc2)NC(=O)[C@@H]2C[C@@H](O)CN2C(=O)C([C@@H](C)O)NC1=O` (stereo partly specified) was run?
Answer: > 20 µM

Question: And the IC50 (read-out: pIC50 (converted))?
Answer: > 20 µM

Question: `CCC(C)CCCCC(=O)N[C@@H](CCNCS(=O)(=O)O)C(=O)N[C@H](C(=O)N[C@@H](CCNCS(=O)(=O)O)C(=O)N[C@H]1CCNC(=O)[C@H]([C@@H](C)O)NC(=O)[C@@H](CCNCS(=O)(=O)O)NC(=O)[C@@H](CCNCS(=O)(=O)O)NC(=O)[C@H](CC(C)C)NC(=O)[C@@H](CC(C)C)NC(=O)[C@H](CCNCS(=O)(=O)O)NC1=O)[C@@H](C)O` (stereo partly specified) was tested. Which IC50 did it give?
Answer: > 20 µM

Question: What about the IC50 (read-out: pIC50 (converted)) of the same molecule?
Answer: > 20 µM

Question: With `CN1[C@@H]2CC(=O)C[C@H]1[C@H](O)C2` as the molecule, how does the IC50 read?
Answer: > 20 µM

Question: And the IC50 (read-out: pIC50 (converted))?
Answer: > 20 µM

Question: How did the IC50 turn out when `C[C@H]1O[C@H](O[C@H]2[C@H](O)[C@@H](O)[C@@H](O[C@@H]([C@H](O)[C@@H](O)C=O)[C@H](O)CO)O[C@@H]2CO)[C@H](O)[C@@H](O)[C@@H]1N[C@H]1C=C(CO)[C@@H](O)[C@H](O)[C@H]1O.C[C@H]1O[C@H](O[C@H]2[C@H](O)[C@@H](O)[C@@H](O[C@H]3[C@H](O)[C@@H](O)[C@H](O)O[C@@H]3CO)O[C@@H]2CO)[C@H](O)[C@@H](O)[C@@H]1N[C@H]1C=C(CO)[C@@H](O)[C@H](O)[C@H]1O` was run?
Answer: > 20 µM

Question: What about the IC50 (read-out: pIC50 (converted)) of the same molecule?
Answer: > 20 µM

Question: Which IC50 does the source give for `CC1C(=O)CC[C@@H]2C1(C)CC[C@H]1C2(C)CCC2(C)C3CC(C)(C)CCC3(C)CCC12C` (stereo partly specified) here?
Answer: > 20 µM

Question: And the IC50 (read-out: pIC50 (converted))?
Answer: > 20 µM

Question: What does the source list for `COc1ccc2c(OC3CC4C(=O)NC5(C(=O)NS(=O)(=O)C6CC6)CC5/C=C\CCCCN(C)C(=O)C4C3)cc(-c3nc(C(C)C)cs3)nc2c1C` (stereo unspecified)?
Answer: IC50: > 20 µM; IC50 (read-out: pIC50 (converted)): > 20 µM

Question: Which IC50 does the source give for `C[C@@H]1C(=O)O[C@H]2[C@H](O)[C@]34[C@@H]5OC(=O)[C@]3(O[C@@H]3OC(=O)[C@H](O)C34C(C(C)(C)C)C5O)[C@@]12O` (stereo partly specified) here?
Answer: > 20 µM

Question: And the IC50 (read-out: pIC50 (converted))?
Answer: > 20 µM

Question: Which results are given for `C=CC[N@@+]12CC[C@]34c5ccccc5N5/C=C6\C7N(/C=C(/C53)[C@@H](C[C@@H]41)/C(=C/CO)C2)c1ccccc1[C@@]71CC[N@@+]2(CC=C)C/C(=C\CO)[C@@H]6C[C@@H]12` (stereo partly specified)?
Answer: IC50: > 20 µM; IC50 (read-out: pIC50 (converted)): > 20 µM

Question: `CCC(=O)O[C@@H]1CC(=O)O[C@H](C)C/C=C\C=C/[C@@H](O)[C@H](C)C[C@H](CC=O)[C@H](O[C@H]2O[C@H](C)[C@@H](O[C@H]3C[C@@](C)(O)[C@@H](OC(=O)CC)[C@H](C)O3)[C@H](N(C)C)[C@H]2O)[C@H]1OC` was tested. Which IC50 did it give?
Answer: > 20 µM

Question: What about the IC50 (read-out: pIC50 (converted)) of the same molecule?
Answer: > 20 µM

Question: With `CCN1CCN(c2cc(-c3ccccc3)c3ccccc3n2)CC1` as the molecule, how does the IC50 read?
Answer: > 20 µM

Question: And the IC50 (read-out: pIC50 (converted))?
Answer: > 20 µM

Question: What does the source list for `CC(=O)OCC(=O)[C@@]1(O)CCC2C3CCC4=CC(=O)CC[C@]4(C)C3=CC[C@@]21C` (stereo partly specified)?
Answer: IC50: > 20 µM; IC50 (read-out: pIC50 (converted)): > 20 µM

Question: How did the IC50 turn out when `OC(c1ccccc1)(c1ccccc1)[C@@H]1C[C@H]1c1ccncc1` was run?
Answer: > 20 µM

Question: What about the IC50 (read-out: pIC50 (converted)) of the same molecule?
Answer: > 20 µM

Question: For `CN1c2ccccc2[C@H](NCCCCCCC(=O)O)c2ccc(Cl)cc2S1(=O)=O`, which IC50 is on record?
Answer: > 20 µM

Question: What about the IC50 (read-out: pIC50 (converted)) of the same molecule?
Answer: > 20 µM

Question: Which results are given for `CC12CCC(=O)C=C1CCC1C2C(O)CC2(C)C1CCC2(O)C(=O)COP(=O)(O)O` (stereo unspecified)?
Answer: IC50: > 20 µM; IC50 (read-out: pIC50 (converted)): > 20 µM

Question: What does the source list for `COC(=O)N[C@@H](C(=O)N1CCC[C@@H]1c1ncc(-c2ccc(-c3ccc(-c4cnc([C@H]5CC6(CN5C(=O)[C@H](NC(=O)OC)C(C)C)OCCO6)[nH]4)cc3)cc2)[nH]1)C(C)C`?
Answer: IC50: > 20 µM; IC50 (read-out: pIC50 (converted)): > 20 µM

Question: Which results are given for `CC(=O)O[C@H]1C(=O)[C@@]2(C)C([C@H](OC(=O)c3ccccc3)[C@]3(O)C[C@H](OC(=O)[C@H](O)[C@@H](NC(=O)c4ccccc4)c4ccccc4)C(C)=C1C3(C)C)[C@]1(OC(C)=O)CO[C@@H]1C[C@@H]2O` (stereo partly specified)?
Answer: IC50: > 20 µM; IC50 (read-out: pIC50 (converted)): > 20 µM

Question: For `[N-]=[N+]=N[C@]1(CO)O[C@@H](n2ccc(N)nc2=O)[C@@H](O)[C@@H]1O`, which IC50 is on record?
Answer: > 20 µM

Question: And the IC50 (read-out: pIC50 (converted))?
Answer: > 20 µM

Question: What does the source list for `COC(=O)c1cnc2n1CCc1ccccc1C2=C1CCN(CCc2ccc(OCc3ccc4ccccc4n3)cc2)CC1`?
Answer: IC50: > 20 µM; IC50 (read-out: pIC50 (converted)): > 20 µM

Question: How did the IC50 turn out when `COc1ccc(-c2ccc(Cn3c(CC(C)(C)C(=O)O)c(SC(C)(C)C)c4cc(OCc5ccccn5)ccc43)cc2)cn1` was run?
Answer: > 20 µM

Question: What about the IC50 (read-out: pIC50 (converted)) of the same molecule?
Answer: > 20 µM

Question: How did the IC50 turn out when `O=C(NCNC(=O)NC1C(=O)NC(=O)N1CO)NC1C(=O)NC(=O)N1CO` (stereo unspecified) was run?
Answer: > 20 µM

Question: What about the IC50 (read-out: pIC50 (converted)) of the same molecule?
Answer: > 20 µM

Question: `Nc1nc(=O)n([C@H]2CC[C@@H](CO)O2)cc1F` was tested. Which IC50 did it give?
Answer: > 20 µM

Question: And the IC50 (read-out: pIC50 (converted))?
Answer: > 20 µM
